Molecular target: Hyaluronidase from bovine testes type I-S (Bos taurus, UniProt Q2YDK3)
Experiment: Antihyaluronidase activity, spectrophotometric (turbidimetric CTAB) method
Assay type: biochemical
Conditions: for IC50 hyaluronidase inhibition: pH 4.5, 37 °C
Description: Antihyaluronidase activity was determined using a spectrophotometric method described previously. Briefly, extracts after evaporation of methanol were dissolved in DMSO (at concentrations of 0.01–1 mg/mL) and were pre-incubated (10 min, 37 °C) in the presence of the hyaluronidase enzyme (25 µL Hyal, 30 U/mL) and incubation buffer (25 µL, acetate buffer, pH 4.5, […], 0.5 mg/mL albumin). The same procedure was applied to isolated compounds (at concentrations 0.005–1 mg/mL). Next, a solution of hyaluronic acid (25 µL HA, 0.3 mg/mL) was added to the reaction mixtures and the samples were incubated (45 min, 37 °C). After incubation, CTAB (200 µL of 2.5%) solution was added to the reaction mixtures. The inhibitory effect of the tested extracts and saponins on the enzyme activity was determined on the basis of the measurement of the absorbance of the precipitated nonhydrolyzed hyaluronic acid. The study was carried out using a multipurpose plate reader (Synergy HT BioTek, Winooski, VT, USA) at a wavelength of 600 nm. Antihyaluronidase activity was expressed as % enzyme inhibition, as previously described. Quercetin and escin were used as positive controls in the range of concentrations (10–1000 µg/mL corresponding to the analyzed substances (see Table 4).

[1] = read-out: Hyaluronidase Inhibition [%]

Hyaluronidase from bovine testes type I-S, sequence (Q2YDK3 entry or part of it): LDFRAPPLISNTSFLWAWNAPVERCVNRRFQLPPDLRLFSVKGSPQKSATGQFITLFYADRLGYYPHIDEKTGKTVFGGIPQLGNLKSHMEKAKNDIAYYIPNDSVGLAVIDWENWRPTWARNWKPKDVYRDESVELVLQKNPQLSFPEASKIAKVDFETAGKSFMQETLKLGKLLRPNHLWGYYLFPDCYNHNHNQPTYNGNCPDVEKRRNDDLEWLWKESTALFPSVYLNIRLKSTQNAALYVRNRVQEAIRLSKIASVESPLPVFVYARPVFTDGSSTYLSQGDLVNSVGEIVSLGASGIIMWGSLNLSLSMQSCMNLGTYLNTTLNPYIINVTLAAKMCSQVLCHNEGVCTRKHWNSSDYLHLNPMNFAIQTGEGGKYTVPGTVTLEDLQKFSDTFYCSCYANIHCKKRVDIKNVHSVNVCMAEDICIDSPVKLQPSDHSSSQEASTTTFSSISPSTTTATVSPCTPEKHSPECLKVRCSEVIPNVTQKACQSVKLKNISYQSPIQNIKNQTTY

Molecule	IC50 hyaluronidase inhibition [µg/mL]	inhibition at 10 µg/mL [1] [%]	inhibition at 20 µg/mL [1] [%]	inhibition at 50 µg/mL [1] [%]	inhibition at 100 µg/mL [1] [%]	inhibition at 200 µg/mL [1] [%]	inhibition at 300 µg/mL [1] [%]	inhibition at 500 µg/mL [1] [%]	inhibition at 700 µg/mL [1] [%]	inhibition at 1000 µg/mL [1] [%]
O=c1c(O)c(-c2ccc(O)c(O)c2)oc2cc(O)cc(O)c12 [quercetin]	514.28	0.61 ± 0.53	0.62 ± 0.54	1.24 ± 0.99	4.39 ± 0.88	13.9 ± 2.7	21.9 ± 4.04	38.8 ± 1.33	80.56 ± 0.49	91.1 ± 1.5
escin	307.38									

Reference: PMC9921161, “Antihyaluronidase and Antioxidant Potential of Atriplex sagittata Borkh. in Relation to Phenolic Compounds and Triterpene Saponins” (Molecules, 2023)
